# Read-outs that look alike come from different tables or passages of the source.
# Experiments:
# NDM-1 [1] = target: T1, NDM-1 (Klebsiella pneumoniae, UniProt C7C422); assay type: biochemical; conditions: mixture of NDM-1 and BSA, 0-1000 μM, light 450 nm, 20 J cm^-2
# Procedure: 1.8 Protein degradation via SDS-PAGE […]
# were made at 10 mM in DMSO and then diluted to the appropriate concentration (1 mM – 10 µM) in 50 mM HEPES pH 7.5. The enzyme stocks (10 µM) were made up in 50 mM HEPES pH 7.5. The compound and enzyme stocks were mixed 1:1 and then pre -incubated for 10 min […]
# ‘light’ conditions the samples were transferred to a 96 well plate to provide irradiation. For a […]
# (208 s, 96 mW cm-2). For a dose of 60 J cm-2 the plate was irradiated immediately (624 s, 96 […]
# An aliquot of each sample was mixed with SDS-sample buffer (NuPAGE® LDS Sample buffer 4x) and heated to 95°C for 3 min. The samples were loaded on to the gel (NuPAGE® 4-12% Bis-tris gel) and run at 200V/125 mA for 30 min (1 gel per Gel box) or 60 min (2 gels per Gel box). SDS-PAGE gels were imaged using a Cytiva Amersham ImageQuant™ 800.
# Densitometry of gel bands was measured and processed using Fiji (ImageJ).
# 1.8.3 BSA+NDM-1 selectivity experiment […]
# nm, 20 J cm-2). Lane 1: Ladder; Lane 2: NDM-1 – no compound control (dark); Lane 3: BSA – no compound control (dark); Lane 4: NDM-1 + BSA - no compound control (dark); Lane 5: NDM-1 + BSA + 1 eq. compound (dark); Lane 6: NDM-1 + BSA + 10 eq. compound (dark); Lane 7: NDM-1 + BSA + 100 eq. compound (dark); Lane 8: NDM-1 + BSA - no compound control (light); Lane 9: NDM-1 + BSA + 1 eq. compound (light); Lane 10: NDM-1 + BSA + 10 eq. compound (light); Lane 11: NDM-1 + BSA + 100 eq. compound (light). […]
# the dark (left) and under light irradiation (450 nm, 20 J cm-2).
# E. coli NDM-1 = conditions: 320 μM, 1 h
# Procedure: (§1) In parallel, a control set was incubated without compounds for 50 min, followed by incubation with 75 μM meropenem trihydrate for 10 min. Cells were then pelleted, washed, resuspended in water, lysed, and clarified before LC-MS analysis.
# (§2) 1.12 LC-MS accumulation assay
# (§3) 1.12.1 Bacterial Strains and Growth Conditions:
# (§4) Accumulation assay was performed two E. coli K-12 MG1655 strains transfected with pSU18 vector containing NDM-1 expression or an empty vector control. Cell growth was performed in Luria-Bertani (LB) broth (NaCl 10g/L, K2HPO4 6.3 g/L, KH2PO4 1.8 g/L, sodium citrate […]
# (§5) 1.12.2 Preparation of Accumulation Assay Samples for LC-MS Analysis:
# (§6) Assay was adapted from the work of Geddes et al. and Widya et al.9–11 E. coli MG1655 pSU18 NDM-1 and pSU18 Empty were grown from single colonies at 37 °C with aeration, while shaking at 180 rpm for 18 hours. The overnight suspensions were subcultured (1:100) in fresh LB and incubated to yield an OD600 of 0.55-0.60. The were harvested and pelleted at 3500 × g for 15 minutes at 4 °C. The pellets were washed with Meuller -Hinton II (MHII) broth and pelleted again under the same conditions. The pellets were resuspended in a n adjusted volume of fresh MHII to achieve an OD 600 ≈ 10.0. Shielded from ambient light, cells were incubated with 320 μM of metal complex for 1 hour while shaking at 180 rpm. Separately, another set of cells was incubated under identical conditions without any added metal complex. Cells […]
# (§7) incubated with metal complex were maintained incubating under the same conditions for an additional 10 minutes, while the second set of cells was incubated with 75 μM of meropenem trihydrate for 10 minutes. After treatment, 10 μL of each cell suspension was taken and dilution 1:10 PBSA for OD600 viability analysis. A 150 μL aliquot of each cell suspension was layered onto 150 μL of cold silicone oil mixture (1:9, v/v AR20:High temperature silicone oil) and centrifuged at 3500 × g for 1 hour at 4 °C. The aqu eous and oil supernatant were carefully aspirated to isolate the cell pellets, which were resuspended in 50 μL of water and transferred to a fresh microplate. For lysis, a 1:1 (v/v) mixture of acetonitrile and methanol was added to each sample, and the sam ples were freeze thawed at -80 °C for approximately 18 hours.
# (§8) Thawed samples were clarified by two rounds of centrifugation at 3500 × g for 1 hour at 4 °C, […]
# (§9) External calibration curves were prepared by mixing compound at increasing concentration with extracted cell lysate (prepared in parallel to analyte containing samples) in concentrations […]
# (§10) nM were also prepared to assess quantitative accuracy. Samples were submitted to LCMS analysis as biological triplicate using a single calibration curve. […]
# (§11) was spiked into each calibration and analyte sampl e as an internal standard.
# E. coli empty = conditions: 320 μM, 1 h
# Procedure: as §1, §2, §3, §4, §5, §6, §7, §8, §9, §10, §11
# [2] = Luminescence lifetime of the excited state; assay type: physicochemical; conditions: PBS
# Excerpt: 1.2.6 Luminescence lifetime
# at room temperature with a Horiba Scientific FL-1065 (FluoroLog) using a pulse laser (486
# nm) as the excitation source.
# Lifetime of excited state (ns)
# [3] = 1O2 quantum yield by DPBF photooxidation; assay type: physicochemical; conditions: oxygenated methanol, 450 nm
# Procedure: To quantify the generation of ^1O2 produced by the complexes, 1,3-diphenylisobenzofuran (DPBF) was used as a ^1O2 scavenger.
# The 1O2 quantum yields were determined by tracking the photooxidation of 1,3-
# fully aerated and exposed to LED irradiation at 450 nm (1 3 mW cm−2).
# reaction mixture at 411 nm was recorded at one-second intervals.
# cumulative absorbance changes at 411 nm versus cumulative irradiation time.
# NDM-1 [4] = target: T1, NDM-1
# Procedure: 1.4.1 Differential Scanning Fluorimetry (DSF)
# DSF was performed using the Applied Biosystems QuantStudio 5 thermal cycler (Thermo
# Fisher Scientific). Results were analysed and Tm determined with the Applied Biosystems
# Protein Thermal Shift Software v1.4 and Tm values determined by the software. DSF was
# conducted in sealed MicroAmp Optical 384-Well Reaction Plates (Thermo Fisher Scientific).
# at a temperature ramp rate of 0.03 °C/s. For compound-protein interaction studies, a final
# containing 5X SYPRO Orange (Thermo Fisher Scientific), 50 mM HEPES and 5%(v/v)
# DMSO-d6. The final reaction volume was 20 µL per well. All DMSO compound stocks used
# for DSF experiments were freshly prepared from solid stocks. All DSF measurements were
# carried out in triplicate and the Tm reported is the mean value and the error is the standard
# deviation. For all compounds tested, a no protein control run was included to see potential
# changes in fluorescence resulting from a compound-dye interaction.
# NDM-1 [5] = target: T1, NDM-1; remark: listed apart in the source
# NDM-1 in E. coli NDM-1 = NDM-1 in E. coli NDM-1 (Klebsiella pneumoniae, UniProt C7C422); conditions: E. coli NDM-1, nitrocefin
# Chain of NDM-1 in E. coli NDM-1 (C7C422 29-270 limits assumed): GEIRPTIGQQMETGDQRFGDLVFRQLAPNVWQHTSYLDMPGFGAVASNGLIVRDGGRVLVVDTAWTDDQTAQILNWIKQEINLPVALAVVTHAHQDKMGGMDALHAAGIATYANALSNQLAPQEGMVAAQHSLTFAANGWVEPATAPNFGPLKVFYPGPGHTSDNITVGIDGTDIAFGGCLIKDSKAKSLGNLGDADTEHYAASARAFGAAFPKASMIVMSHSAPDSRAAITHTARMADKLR
# Procedure: shaking at 180 rpm for 18 hours. The overnight suspensions were subcultured (1:100) in fresh LB and incubated to yield an OD600 of 0.55-0.60. The were harvested and pelleted at 3500  g for 15 minutes at 4 °C. The pellets were washed with PBS and pelleted again under the same
# conditions. The bacteria were then stored as pellets at 4 C until required for the assay and to
# be used within 5 hours. To prepare the bacteria fo r the assay, a pellet was resuspended in an
# adjusted volume of fresh PBS to achieve an OD600 ≈ 5.0 and then kept at 4 C for 1 hr before
# being used. The bacteria were then diluted to OD600 ≈ 2.0 in fresh PBS and used immediately.
# inhibitor control, and one row of Bacteria Buffer B (50 µL) which served as a no-bacteria
# control (providing five rows in total). Bacteria stock (OD600 ≈ 2.0, 40 µL, final concentration
# of bacteria in well = OD600 ≈ 0.8) was added to each well of the first four rows, the plate was
# sealed, and the samples then pre-incubated for 60 min under either ‘dark’ or ‘light’ conditions
# Under ‘dark’ conditions, the plate was left sealed in a
# substrate in well = 100 µM) was conducted manually and then the plate immediately resealed
# substrate had been completely consumed. Method conditions are as follows: cycle time = 100
# [6] = tested on: seven mammalian cell lines; conditions: panel of seven mammalian cell lines including HepG2
# T1 sequence (C7C422 31-270 limits assumed): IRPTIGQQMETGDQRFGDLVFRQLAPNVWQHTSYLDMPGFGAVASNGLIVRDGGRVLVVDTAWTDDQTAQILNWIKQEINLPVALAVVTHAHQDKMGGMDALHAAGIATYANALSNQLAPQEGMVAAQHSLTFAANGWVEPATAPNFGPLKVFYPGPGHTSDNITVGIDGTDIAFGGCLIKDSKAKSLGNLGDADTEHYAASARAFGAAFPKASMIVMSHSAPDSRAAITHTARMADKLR
structure (smiles),measurement,setting,value
"F[P-](F)(F)(F)(F)F.F[P-](F)(F)(F)(F)F.[Ru+2].c1ccc(-c2ccccn2)nc1.c1ccc(-c2ccccn2)nc1.c1ccc(-n2cnc3c4cccnc4c4ncccc4c32)cc1 [Ru2, [Ru(2,2'-bipyridine)2(1-phenyl-imidazo[4,5,f][1,10]phenanthroline)](PF6)2]",Degradation of NDM-1 vs BSA (band intensity),NDM-1 [1],both NDM-1 and BSA band intensities were diminished
same,Accumulation,E. coli NDM-1,494 nM/OD600
same,Accumulation,E. coli empty,405 nM/OD600
same,Luminescence lifetime of excited state,[2],463 ns
same,1O2 quantum yield (ΦΔ),[3],0.87
same,Change in melting temperature (ΔT) of NDM-1,NDM-1 [4]; compound 4 μM,0.0 °C
same,Change in melting temperature (ΔT) of NDM-1,NDM-1 [4]; compound 16 μM,0.0 °C
same,Change in melting temperature (ΔT) of NDM-1,NDM-1 [4]; compound 63 μM,0.0 °C
same,Effect on melting temperature of NDM-1,NDM-1 [4]; in words,no effect
same,Fold difference in IC50(light) between Ru1 and untargeted control Ru2,"NDM-1 [5]; 450 nm, 20 J cm^-2",approximately 25 fold
same,IC50,"NDM-1 [5]; read-out: IC50(light), recombinant NDM-1, nitrocefin, light 450 nm, 20 J cm^-2",5.6 ± 0.5 µM
same,IC50(dark),"NDM-1 [5]; recombinant NDM-1, nitrocefin, dark",no inhibition
same,IC50(dark),NDM-1 in E. coli NDM-1; dark,no inhibition
same,IC50(light),"NDM-1 in E. coli NDM-1; light 450 nm, 60 J cm^-2",no inhibition
same,LD50,HEK293T; 24 h,> 50 µM
same,LD50,HEK293T; 48 h,> 50 µM
same,LD50,HaCaT; 24 h,> 50 µM
same,LD50,HaCaT; 48 h,> 50 µM
same,LD50,HeLa; 24 h,> 50 µM
same,LD50,HeLa; 48 h,> 50 µM
same,LD50,"HepG2; HepG2, 24 h",> 50 µM
same,LD50,"HepG2; HepG2, 48 h",> 50 µM
same,LD50,"hTERT RPE-1; RPE1, 24 h",> 50 µM
same,LD50,"hTERT RPE-1; RPE1, 48 h",> 50 µM
same,Cytotoxicity (no cytotoxicity up to),[6],> 50 µM

# — paper PMC12703741, “Light-Activated Metal-Dependent Protein Degradation: A Heterobifunctional Ruthenium(II) Photosensitizer Targeting New Delhi Metallo-β-lactamase 1” (Journal of the American Chemical Society, 2025)
